ChEMBL document CHEMBL5360560, “Anti-Vibrio potential of natural products from marine microorganisms” (Eur J Med Chem, 2023)
≈ marks a conversion by molar mass, not a printed value. Values belong to the molecule of their own block, whether it stands above or below them.

Experiments:
Type in all cases: functional
Vibrio harveyi [1] = assay: Antimicrobial activity against Vibrio harveyi QDIO-7 assessed as bacterial growth inhibition by microplate reader assay
Vibrio vulnificus [2] = assay: Antimicrobial activity against Vibrio vulnificus assessed as bacterial growth inhibition
Vibrio parahaemolyticus [3] = assay: Antimicrobial activity against Vibrio parahaemolyticus assessed as bacterial growth inhibition by broth dilution assay
Vibrio anguillarum [4] = assay: Antimicrobial activity against Vibrio anguillarum assessed as bacterial growth inhibition by broth dilution assay
Vibrio alginolyticus = assay: Antimicrobial activity against Vibrio alginolyticus assessed as bacterial growth inhibition by broth dilution assay
Vibrio harveyi [5] = assay: Antimicrobial activity against Vibrio harveyi assessed as bacterial growth inhibition by microplate reader assay
Vibrio anguillarum [6] = assay: Antimicrobial activity against Vibrio anguillarum assessed as bacterial growth inhibition by microplate reader assay
Vibrio harveyi [7] = assay: Antimicrobial activity against Vibrio harveyi assessed as bacterial growth inhibition
Vibrio vulnificus [8] = assay: Antimicrobial activity against Vibrio vulnificus MCCC E1758 assessed as bacterial growth inhibition by resazurin dye based assay
Vibrio parahaemolyticus [9] = assay: Antimicrobial activity against Vibrio parahaemolyticus assessed as bacterial growth inhibition
Vibrio anguillarum [10] = assay: Antibacterial activity against Vibrio anguillarum assessed as bacterial growth inhibition
Vibrio harveyi [11] = assay: Antibacterial activity against Vibrio harveyi assessed as bacterial growth inhibition
Vibrio parahaemolyticus [12] = assay: Antimicrobial activity against Vibrio parahaemolyticus assessed as zone of inhibition

Compound: COc1cc(O)c2c(=O)c(C)c(C)oc2c1O
MIC (Vibrio vulnificus [2]): 32 µg/mL (≈ 135 µM)

Compound: COc1cc(O)c2c(=O)c(C)c(C)oc2c1OC
MIC (Vibrio vulnificus [2]): 64 µg/mL (≈ 256 µM)

Compound: CO[C@@H]1CC(=O)/C=C/C[C@@H](C)OC(=O)C[C@H](O)C1
MIC (Vibrio parahaemolyticus [3]): 25 µM

Compound: COc1c(Cl)c(O)cc2c1C(=O)c1c(O)cc(COC(C)=O)cc1C2=O
MIC (Vibrio parahaemolyticus [3]): 10 µM

Compound: CCOC(=O)Cc1cc(O)cc(O)c1C(=O)CC
MIC (Vibrio vulnificus [8]): 15.6 µg/mL (≈ 61.8 µM)

Compound: CC[C@@H](C)[C@@H](O)/C=C/C=C/CC[C@@H](C)C[C@H](C)[C@H]1C[C@@H](O)[C@H](C)CC/C=C/[C@H](C)C/C=C(\C)[C@H](O)CCC[C@@H](OC)[C@H](C)/C=C/C(=O)O1
MIC (Vibrio parahaemolyticus [9]): 1.56 µg/mL

Compound: COc1ccc(O)c(-c2cc(OC)ccc2O)c1
MIC (Vibrio parahaemolyticus [3]): 10 µg/mL

Compound: CCOC(=O)Cc1cc(OC)cc(OC)c1C(=O)CC
MIC (Vibrio vulnificus [8]): 15.6 µg/mL (≈ 55.7 µM)

Compound: COc1cc(O)c2c(c1)C(=O)[C@@H]1C[C@](C)(O)[C@H](O)[C@H](O)[C@]1(O)C2=O
MIC (Vibrio parahaemolyticus [9]): 50 µM

Compound: CCCCCc1cc(O)c2ccccc2n1
MIC (Vibrio harveyi [11]): 4 µg/mL (≈ 18.6 µM)

Compound: C[C@H](O)[C@H](Cl)C1=C[C@H](O)[C@@H](C)OC1=O [CHLOROHYDROASPYRONE A]
MIC (Vibrio anguillarum [10]): 0.5 µg/mL
MIC (Vibrio harveyi [11]): 32 µg/mL (≈ 145 µM)

Compound: C=C(C)[C@H]1COc2c(C)cc3oc4c([C@@H](OC)[C@@H](O)C(=C)C)ccc(O)c4c(=O)c3c2[C@@H]1OC(C)=O
MIC (Vibrio parahaemolyticus [3]): 1.56 µM
MIC (Vibrio anguillarum [4]): 1.56 µM
MIC (Vibrio alginolyticus): 1.56 µM

Compound: CC[C@@H](C)[C@H](/C=C/C(=C/CC[C@@H](C)C[C@H](C)[C@H]1C[C@@H](O)[C@H](C)CC/C=C/[C@H](C)C/C=C(\C)[C@H](O)CCC[C@@H](O)[C@H](C)/C=C/C(=O)O1)CO)OC(C)=O
MIC (Vibrio parahaemolyticus [9]): 1.56 µg/mL

Compound: CC[C@H](C)C[C@H](C)/C=C(\C)c1cc(=O)cc(O)o1
MIC (Vibrio parahaemolyticus [3]): 6.25 µg/mL

Compound: C[C@H]1[C@H]([C@@]2(C)CCC([C@](C)(O)CO)O2)CC[C@@]1(C)O (some centres not stated)
inhibition zone (IZ) (Vibrio parahaemolyticus [12]): 6.2 mm

Compound: C[C@@H]1C[C@H](O)CC(=O)C/C=C/[C@@H](O)CC(=O)O1
MIC (Vibrio parahaemolyticus [3]): 25 µM

Compound: C[C@H](O)/C=C1/C(=O)O[C@H]([C@@H](C)O)[C@@H]1O
MIC (Vibrio anguillarum [10]): 0.5 µg/mL
MIC (Vibrio harveyi [11]): 32 µg/mL (≈ 158 µM)

Compound: COc1ccc2c3c4n(c2c1)C(C=C(C)C)OOC(C)(C)C[C@@H]4N1C(=O)[C@@H]2CCCN2C(=O)[C@]1(O)[C@H]3O (some centres not stated)
MIC (Vibrio harveyi [7]): 16 µg/mL

Compound: C=C(C)C1(O)OC(=O)C=C1OC (configuration not stated) [PENICILLIC ACID]
MIC (Vibrio anguillarum [10]): 0.5 µg/mL
MIC (Vibrio harveyi [11]): 32 µg/mL (≈ 188 µM)

Compound: CC[C@H]1/C=C/CC[C@@H](C)[C@H](O)C[C@H]([C@@H](CO)C[C@H](C)CC[C@H](O)[C@H](C)/C=C/[C@H](O)C(C)C)OC(=O)/C=C/[C@](C)(O)[C@H](O)CCC[C@@H](O)[C@H](C)CC1
MIC (Vibrio parahaemolyticus [9]): 1.56 µg/mL

Compound: COc1cc(O)c2c(c1)C(=O)C1=C(C2=O)[C@H](O)[C@@H](O)[C@@](C)(O)C1
MIC (Vibrio parahaemolyticus [9]): 25 µM

Compound: CC(O)C(Cl)C1=C[C@H]([C@H](C)O)OC1=O (some centres not stated)
MIC (Vibrio anguillarum [10]): 0.5 µg/mL
MIC (Vibrio harveyi [11]): 32 µg/mL (≈ 145 µM)

Compound: CO[C@@H]1CC(=O)C/C=C/[C@@H](O)CC(=O)O[C@H](C)C1
MIC (Vibrio parahaemolyticus [3]): 12.5 µM

Compound: C[C@H](Cl)[C@@H](O)C1=C[C@H](O)[C@@H](C)OC1=O [CHLOROHYDROASPYRONE B]
MIC (Vibrio anguillarum [10]): 0.5 µg/mL
MIC (Vibrio harveyi [11]): 32 µg/mL (≈ 145 µM)

Compound: CC[C@@H](C)[C@@H](O)/C=C/C(C)=C/CC[C@@H](C)C[C@H](C)[C@H]1C[C@@H](O)[C@H](C)CC/C=C/[C@H](C)C/C=C(\C)[C@H](O)CCC[C@@H](O)[C@H](C)/C=C/C(=O)O1
MIC (Vibrio parahaemolyticus [9]): 1.56 µg/mL

Compound: C=C(C)[C@H]1COc2c(C)cc3oc4c([C@@H](OC)[C@@H](O)C(=C)C)ccc(O)c4c(=O)c3c2[C@@H]1O
MIC (Vibrio parahaemolyticus [3]): 1.56 µM
MIC (Vibrio anguillarum [4]): 1.56 µM
MIC (Vibrio alginolyticus): 1.56 µM

Compound: C[C@@H](O)CCCCC[C@H](C)[C@@H]1C=CC(=O)O1
MIC (Vibrio parahaemolyticus [3]): 25 µM

More lines, main results first:

MIC (Vibrio harveyi [1]): 64 µg/mL
Compound: CC(C)/C=C1\NC(=O)[C@@H](Cc2ccccc2)n2c1nc1ccccc1c2=O

MIC (Vibrio harveyi [1]): 4 µg/mL
Compound: O=C1CC[C@@H](c2ccc(O)c3c2C(=O)CCC3=O)c2cccc(O)c21

MIC (Vibrio anguillarum [4]): 1.56 µM
MIC (Vibrio alginolyticus): 1.56 µM
Compound: C=C(C)[C@H]1COc2c(C)cc3oc4c(C[C@H](O)C(C)(C)O)ccc(O)c4c(=O)c3c2[C@@H]1O [TAJIXANTHONEHYDRATE]
MIC (Vibrio parahaemolyticus [3]): 1.56 µM

MIC (Vibrio harveyi [5]): 4 µg/mL
MIC (Vibrio anguillarum [6]): 4 µg/mL
Compound: C[C@@]12C=C[C@@H]3C[C@H](CO)CC[C@@H]3[C@]1(C)C(=O)C=CO2

MIC (Vibrio harveyi [5]): 8 µg/mL
Compound: CC(C)/C=C1/NC(=O)[C@H](CCC(N)=O)n2c1nc1ccccc1c2=O

MIC (Vibrio harveyi [7]): 16 µg/mL
Compound: O=C1N[C@@H]2c3nc4ccccc4c(=O)n3[C@H]1CC21C(=O)Nc2ccccc21 (some centres not stated)

MIC (Vibrio anguillarum [10]): 10 µM
Compound: CC(C)CCC[C@@](C)(O)c1ccc(C(=O)O)cc1O
MIC (Vibrio parahaemolyticus [9]): 5 µM

MIC (Vibrio harveyi [5]): 4 µg/mL
MIC (Vibrio anguillarum [6]): 4 µg/mL
Compound: C[C@@H]1CC[C@@H]2[C@H](C=C[C@](C)(O)[C@@]2(C)C(=O)CCO)C1

MIC (Vibrio harveyi [11]): 0.5 µg/mL (≈ 2.48 µM)
Compound: CCCCc1cc(O)c2ccccc2n1

MIC (Vibrio harveyi [5]): 8 µg/mL
Compound: COC(=O)CC[C@H]1C(=O)N/C(=C\C(C)C)c2nc3ccccc3c(=O)n21

MIC (Vibrio anguillarum [4]): 5 µg/mL
Compound: COc1cc(O)c2c(c1)C(=O)C1=C(C[C@@H](O)[C@@](C)(O)C1)C2=O [ALTERSOLANOL B]
MIC (Vibrio parahaemolyticus [9]): 25 µM
MIC (Vibrio parahaemolyticus [3]): 2.5 µg/mL

MIC (Vibrio anguillarum [4]): 1.56 µM
MIC (Vibrio alginolyticus): 1.56 µM
Compound: C=C(C)[C@H]1COc2c(C)cc3oc4c(C[C@H](OC(C)=O)C(C)(C)O)ccc(O)c4c(=O)c3c2[C@@H]1O
MIC (Vibrio parahaemolyticus [3]): 1.56 µM

MIC (Vibrio anguillarum [4]): 1.56 µM
MIC (Vibrio alginolyticus): 1.56 µM
Compound: C=C(C)[C@H]1COc2c(C)cc3oc4c([C@@H](OC)[C@@H](O)C(C)(C)O)ccc(O)c4c(=O)c3c2[C@@H]1OC(C)=O
MIC (Vibrio parahaemolyticus [3]): 1.56 µM

MIC (Vibrio anguillarum [4]): 3.1 µM
MIC (Vibrio alginolyticus): 3.1 µM
Compound: CC(C)(O)[C@H](O)CC[C@]1(C)[C@@H](O)CC[C@@]2(C)[C@H]1CC[C@H]1Cc3c([nH]c4ccccc34)[C@@]12C
MIC (Vibrio parahaemolyticus [3]): 6.3 µM

MIC (Vibrio harveyi [5]): 4 µg/mL
MIC (Vibrio anguillarum [6]): 4 µg/mL
Compound: C[C@H]1C[C@H](O)[C@H]2[C@@H](C=C[C@@](C)(O)[C@]2(C)C(=O)CCO)C1

MIC (Vibrio harveyi [7]): 16 µg/mL
Compound: O=C1NCc2nc3ccccc3c(=O)n2C1Cc1c[nH]c2ccccc12 (configuration not stated)

MIC (Vibrio anguillarum [10]): 0.5 µg/mL
MIC (Vibrio harveyi [11]): 32 µg/mL (≈ 165 µM)
Compound: C[C@@H]1Cc2ccc(O)c(O)c2C(=O)O1

MIC (Vibrio harveyi [5]): 4 µg/mL
MIC (Vibrio anguillarum [6]): 4 µg/mL
Compound: C[C@@]1(O)C=C[C@H]2C[C@@H](CO)CC[C@@H]2[C@@]1(C)C(=O)CCO

MIC (Vibrio harveyi [1]): 64 µg/mL
Compound: CC[C@H](C)[C@@H]1NC(=O)[C@@H](Cc2ccccc2)n2c1nc1c(c2=O)C=CC=CO1

MIC (Vibrio harveyi [5]): 8 µg/mL
Compound: CC(C)/C=C1\NC(=O)[C@H](CCC(N)=O)n2c1nc1ccccc1c2=O [AURANTIOMIDE C]

MIC (Vibrio anguillarum [4]): 25 µg/mL
MIC (Vibrio alginolyticus): 25 µg/mL
Compound: C/C(=C\[C@H]1OC(=O)[C@H](C)[C@@H]1C)[C@H]1CCC2=C3C=CC4=CC(=O)CC[C@]4(C)[C@H]3CC[C@@]21C
MIC (Vibrio parahaemolyticus [3]): 25 µg/mL

MIC (Vibrio harveyi [5]): 4 µg/mL
MIC (Vibrio anguillarum [6]): 4 µg/mL
Compound: C[C@H]1CC[C@H]2[C@@H](C=C[C@H](C)[C@]2(C)C(=O)CCO)[C@@H]1O

MIC (Vibrio anguillarum [4]): 1.56 µM
MIC (Vibrio alginolyticus): 1.56 µM
Compound: C=C(C)[C@@H]1COc2c(C)cc3oc4c(C[C@H](OC(C)=O)C(C)(C)O)ccc(O)c4c(=O)c3c2[C@@H]1O
MIC (Vibrio parahaemolyticus [3]): 1.56 µM

MIC (Vibrio anguillarum [4]): 25 µg/mL
MIC (Vibrio alginolyticus): 25 µg/mL
Compound: C/C(=C\[C@H]1OC(=O)[C@@H](C)[C@@H]1C)[C@H]1CCC2=C3C=CC4=CC(=O)CC[C@]4(C)[C@H]3CC[C@@]21C
MIC (Vibrio parahaemolyticus [3]): 25 µg/mL

MIC (Vibrio harveyi [7]): 50 µM
Compound: Nc1ccccc1C(=O)C[C@H]1NC(=O)[C@H]2CCCN2C1=O

MIC (Vibrio anguillarum [4]): 12.5 µM
MIC (Vibrio alginolyticus): 12.5 µM
Compound: CC(=O)O[C@H]1CC[C@@]2(C)[C@@H](CC[C@H]3Cc4c([nH]c5ccccc45)[C@@]32C)[C@]1(C)CC[C@@H](O)C(C)(C)O
MIC (Vibrio parahaemolyticus [3]): 12.5 µM
